Measured values: patent US20230096766A1, “AMINO ACID HAVING FUNCTIONAL GROUP CAPABLE OF INTERMOLECULAR HYDROGEN BONDING, PEPTIDE COMPOUND CONTAINING SAME AND METHOD FOR PRODUCTION THEREOF” (Chugai Seiyaku Kabushiki Kaisha, priority 2018, published 2023)
Like-named read-outs stand apart in the source and are kept apart here. Where a SMILES comes first, the peptide text is derived from it. Bridges are numbered along the chain shown (N, C = ends). [ ]: non-standard residue; d: D form. The star is where a group is joined. ξ: configuration not given here. NMePhe(3-Cl) = CN[C@@H](Cc1cccc(Cl)c1)C(=O)O; NMehPhe = CN[C@@H](CCc1ccccc1)C(=O)O; hhPhe = N[C@@H](CCCc1ccccc1)C(=O)O; NMeF = CN[C@@H](Cc1ccccc1)C(=O)O; NMeI = CC[C@H](C)[C@H](NC)C(=O)O; hPhe = N[C@@H](CCc1ccccc1)C(=O)O; NMeD = CN[C@@H](CC(=O)O)C(=O)O; NMeL = CN[C@@H](CC(C)C)C(=O)O; NMeV = CN[C@H](C(=O)O)C(C)C; NMeA = CN[C@@H](C)C(=O)O; Piperidide = C1CCN(*)CC1; dNMeA = CN[C@H](C)C(=O)O; X2 = Fc1cncc(C*)c1; Bn = c1ccc(C*)cc1; ξS = NC(CO)C(=O)O; Sar = CNCC(=O)O; tBu = CC(C)(C)*

What was measured:
in vitro = conditions: human, Caco-2, Caco-2 (cm/sec)

Structure (SMILES) | Caco-2 (Caco-2) [cm/s] | Papp (in vitro) [×10⁻⁶ cm/s] | Caco-2 (cm/sec) (Caco-2) | Caco-2 (Caco-2; human) [cm/s]
CC(C)C[C@H]1C(=O)N[C@@H]([C@@H](C)O)C(=O)N(C)CC(=O)N(C)[C@@H](C(C)C)C(=O)N[C@@H](Cc2ccccc2)C(=O)N(C)[C@@H](Cc2cccc(Cl)c2)C(=O)N(C)[C@@H](CC(C)C)C(=O)N(C)[C@H](C(=O)N2CCCCC2)CC(=O)N2CCC[C@H]2C(=O)N[C@@H](Cc2ccccc2)C(=O)N[C@@H](COC(C)(C)C)C(=O)N1C [pd162] (PFS(tBu)[NMeL]T[Sar][NMeV]F[NMePhe(3-Cl)][NMeL][NMeD]-Piperidide; lactam N-11) | 1.2e-06 | 1.2 | – | –
CC(C)C[C@H]1C(=O)N[C@@H]([C@@H](C)O)C(=O)N(C)CC(=O)N(C)[C@@H](C(C)C)C(=O)N[C@@H](Cc2ccccc2)C(=O)N(C)[C@@H](Cc2cccc(Cl)c2)C(=O)N(C)[C@@H](CC(C)C)C(=O)N(C)[C@H](C(=O)N2CCCCC2)CC(=O)N2CCC[C@@H]2C(=O)N[C@@H](Cc2ccccc2)C(=O)N[C@@H](COC(C)(C)C)C(=O)N1C [pd163] ([dP]FS(tBu)[NMeL]T[Sar][NMeV]F[NMePhe(3-Cl)][NMeL][NMeD]-Piperidide; lactam N-11) | 1.7e-06 | 1.7 | – | –
CC(C)C[C@H]1C(=O)N[C@@H]([C@@H](C)O)C(=O)N(C)CC(=O)N(C)[C@@H](C(C)C)C(=O)N[C@@H](Cc2ccccc2)C(=O)N(C)[C@@H](Cc2cccc(Cl)c2)C(=O)N(C)[C@@H](CC(C)C)C(=O)N(C)[C@H](C(=O)N2CCCCC2)CC(=O)N(C)[C@H](C)C(=O)N[C@@H](Cc2ccccc2)C(=O)N[C@@H](COC(C)(C)C)C(=O)N1C [pd167] ([dNMeA]FS(tBu)[NMeL]T[Sar][NMeV]F[NMePhe(3-Cl)][NMeL][NMeD]-Piperidide; lactam N-11) | 1.7e-06 | 1.7 | – | –
CC(C)C[C@H]1C(=O)N[C@@H]([C@@H](C)O)C(=O)N(C)CC(=O)N(C)[C@@H](Cc2ccccc2)C(=O)N(C)[C@@H](CC(C)C)C(=O)N[C@@H](COC(C)(C)C)C(=O)N(C)[C@@H](CC(C)C)C(=O)N[C@H](C(=O)N2CCCCC2)CC(=O)N(C)CC(=O)N(C)[C@@H](Cc2ccccc2)C(=O)N[C@@H](COCc2ccccc2)C(=O)N1C [pd177] ([Sar][NMeF]S(Bn)[NMeL]T[Sar][NMeF][NMeL]S(tBu)[NMeL]D-Piperidide; lactam N-11) | 3e-06 | 3 | – | –
CC[C@H](C)[C@@H]1NC(=O)[C@H](Cc2ccccc2)N(C)C(=O)CN(C)C(=O)C[C@@H](C(=O)N2CCCCC2)NC(=O)[C@H]([C@@H](C)CC)N(C)C(=O)C(COCc2ccccc2)NC(=O)[C@H](CC(C)C)N(C)C(=O)[C@H](Cc2ccccc2)N(C)C(=O)CN(C)C(=O)[C@H]([C@@H](C)O)NC(=O)[C@H](CC(C)C)N(C)C1=O (stereo partly drawn) [pd178] ([Sar][NMeF]I[NMeL]T[Sar][NMeF][NMeL][ξS](Bn)[NMeI]D-Piperidide; lactam N-11) | 2.5e-06 | 2.5 | – | –
CC(C)C[C@H]1C(=O)N[C@@H](COC(C)(C)C)C(=O)N(C)[C@@H](Cc2ccccc2)C(=O)N(C)[C@@H](C(C)C)C(=O)N[C@H](C(=O)N2CCCCC2)CC(=O)N[C@H](C(C)C)C(=O)N(C)[C@@H](Cc2ccccc2)C(=O)N[C@@H](COCc2cncc(F)c2)C(=O)N(C)[C@@H](CC(C)C)C(=O)N[C@@H]([C@@H](C)O)C(=O)N(C)CC(=O)N1C [pd180] ([dV][NMeF]S(X2)[NMeL]T[Sar][NMeL]S(tBu)[NMeF][NMeV]D-Piperidide; lactam N-11) | – | 2.4 | 2 4E−06 cm/sec | –
CC[C@H](C)[C@H]1C(=O)N[C@@H]([C@@H](C)O)C(=O)N(C)CC(=O)N(C)[C@@H](CC(C)C)C(=O)N[C@H](C(=O)N2CCCCC2)CC(=O)N(C)[C@@H](C(C)C)C(=O)N[C@@H](COCc2cncc(F)c2)C(=O)N(C)[C@@H](CC(C)C)C(=O)N(C)[C@@H](Cc2ccccc2)C(=O)N[C@@H](CC(C)C)C(=O)N(C)[C@@H](Cc2ccccc2)C(=O)N1C [pd181] ([NMeV]S(X2)[NMeL][NMeF]L[NMeF][NMeI]T[Sar][NMeL]D-Piperidide; lactam N-11) | 1.1e-06 | 1.1 | – | –
CC(C)C[C@H]1C(=O)N(C)[C@@H](Cc2ccccc2)C(=O)N[C@H](C(=O)N2CCCCC2)CC(=O)N(C)[C@@H](C(C)C)C(=O)N[C@@H](C)C(=O)N(C)[C@@H](Cc2ccccc2)C(=O)N(C)[C@@H](CC(C)C)C(=O)N(C)CC(=O)N[C@@H]([C@@H](C)O)C(=O)N(C)[C@@H](C(C)C)C(=O)N[C@@H](CCc2ccccc2)C(=O)N1C [pd182] ([NMeV]A[NMeF][NMeL][Sar]T[NMeV][hPhe][NMeL][NMeF]D-Piperidide; lactam N-11) | 2.6e-06 | 2.6 | – | –
CC(C)C[C@H]1C(=O)N(C)[C@@H](Cc2ccccc2)C(=O)N[C@@H](COC(C)(C)C)C(=O)N(C)[C@@H](C)C(=O)N[C@H](C(=O)N2CCCCC2)CC(=O)N(C)[C@@H](C)C(=O)N(C)[C@@H](Cc2ccccc2)C(=O)N[C@@H](CCc2ccccc2)C(=O)N(C)[C@@H](CC(C)C)C(=O)N[C@@H]([C@@H](C)O)C(=O)N(C)CC(=O)N1C [pd183] ([NMeA][NMeF][hPhe][NMeL]T[Sar][NMeL][NMeF]S(tBu)[NMeA]D-Piperidide; lactam N-11) | 2.1e-06 | 2.1 | – | –
CC(C)C[C@H]1C(=O)N(C)[C@@H](CCc2ccccc2)C(=O)N[C@@H](COC(C)(C)C)C(=O)N(C)[C@@H](C)C(=O)N[C@H](C(=O)N2CCCCC2)CC(=O)N(C)[C@@H](C)C(=O)N(C)[C@@H](Cc2ccccc2)C(=O)N[C@@H](CCc2ccccc2)C(=O)N(C)[C@@H](CC(C)C)C(=O)N[C@@H]([C@@H](C)O)C(=O)N(C)CC(=O)N1C [pd184] ([NMeA][NMeF][hPhe][NMeL]T[Sar][NMeL][NMehPhe]S(tBu)[NMeA]D-Piperidide; lactam N-11) | 1.2e-06 | 1.2 | – | –
CC(C)C[C@H]1C(=O)N[C@@H](COC(C)(C)C)C(=O)N(C)[C@@H](Cc2ccccc2)C(=O)N(C)[C@@H](C(C)C)C(=O)N[C@H](C(=O)N2CCCCC2)CC(=O)N[C@H](C)C(=O)N(C)[C@@H](Cc2ccccc2)C(=O)NC(COc2cccc(Cl)c2)C(=O)N(C)[C@@H](C(C)C)C(=O)N[C@@H]([C@@H](C)O)C(=O)N(C)CC(=O)N1C (some centres unmarked) [pd185] | 2.2e-06 | 2.2 | – | –
CC(C)C[C@H]1C(=O)N[C@@H](COC(C)(C)C)C(=O)N(C)[C@@H](Cc2ccccc2)C(=O)N(C)[C@@H](C(C)C)C(=O)N[C@H](C(=O)N2CCCCC2)CC(=O)N[C@H](C(C)C)C(=O)N(C)[C@@H](Cc2ccccc2)C(=O)N[C@@H](COc2cccc(Cl)c2)C(=O)N(C)[C@@H](C)C(=O)N[C@@H]([C@@H](C)O)C(=O)N(C)CC(=O)N1C [pd187] | 1.9e-06 | 1.9 | – | –
CC[C@H](C)[C@H]1C(=O)N[C@@H]([C@@H](C)O)C(=O)N(C)CC(=O)N(C)[C@@H](CC(C)C)C(=O)N[C@H](C(=O)N2CCCCC2)CC(=O)N(C)[C@@H](C)C(=O)NC(COc2cccc(Cl)c2)C(=O)N(C)[C@@H](CC(C)C)C(=O)N(C)[C@@H](Cc2ccccc2)C(=O)N[C@@H](C)C(=O)N(C)[C@@H](Cc2ccccc2)C(=O)N1C (some centres unmarked) [pd188] | 1.3e-06 | 1.8 | – | 1.3e-06
CC[C@H](C)[C@H]1C(=O)N[C@H](C(=O)N2CCCCC2)CC(=O)N(C)CC(=O)N(C)[C@@H](Cc2ccccc2)C(=O)N[C@@H](CCCc2ccccc2)C(=O)N(C)[C@@H](CC(C)C)C(=O)N[C@@H]([C@@H](C)O)C(=O)N(C)CC(=O)N(C)[C@@H](Cc2ccccc2)C(=O)N(C)[C@@H](CC(C)C)C(=O)N[C@@H](COC(C)(C)C)C(=O)N1C [pd189] ([Sar][NMeF][hhPhe][NMeL]T[Sar][NMeF][NMeL]S(tBu)[NMeI]D-Piperidide; lactam N-11) | 1.8e-06 | 1.8 | – | –
CC[C@H](C)[C@@H]1NC(=O)[C@H](Cc2ccccc2)N(C)C(=O)CN(C)C(=O)C[C@@H](C(=O)N2CCCCC2)NC(=O)[C@H](C)N(C)C(=O)[C@H](CCCc2ccccc2)NC(=O)[C@H](CC(C)C)N(C)C(=O)[C@H](Cc2ccccc2)N(C)C(=O)CN(C)C(=O)[C@H]([C@@H](C)O)NC(=O)[C@H](CC(C)C)N(C)C1=O [pd190] ([Sar][NMeF]I[NMeL]T[Sar][NMeF][NMeL][hhPhe][NMeA]D-Piperidide; lactam N-11) | 1.5e-06 | 1.5 | – | –
CC(C)C[C@H]1C(=O)N[C@H](C(=O)N2CCCCC2)CC(=O)N(C)[C@@H](C)C(=O)N[C@@H](CCCc2ccccc2)C(=O)N(C)[C@@H](CC(C)C)C(=O)N(C)[C@@H](Cc2ccccc2)C(=O)N[C@@H](C)C(=O)N(C)[C@@H](Cc2ccccc2)C(=O)N(C)[C@@H](C(C)C)C(=O)N[C@@H]([C@@H](C)O)C(=O)N(C)CC(=O)N1C [pd191] ([NMeA][hhPhe][NMeL][NMeF]A[NMeF][NMeV]T[Sar][NMeL]D-Piperidide; lactam N-11) | 1.5e-06 | 1.5 | – | –
CC(C)C[C@H]1C(=O)N[C@@H](COC(C)(C)C)C(=O)N(C)[C@@H](Cc2ccccc2)C(=O)N(C)[C@@H](C)C(=O)N[C@H](C(=O)N2CCCCC2)CC(=O)N[C@H](C(C)C)C(=O)N(C)[C@@H](Cc2ccccc2)C(=O)N[C@@H](CCCc2ccccc2)C(=O)N(C)[C@@H](CC(C)C)C(=O)N[C@@H]([C@@H](C)O)C(=O)N(C)CC(=O)N1C [pd192] ([dV][NMeF][hhPhe][NMeL]T[Sar][NMeL]S(tBu)[NMeF][NMeA]D-Piperidide; lactam N-11) | 1.1e-06 | 1.1 | – | –
